Here are results for 9 compounds from patent US8791132B2, “Compounds and methods for treatment of hypertension” (Medivation Technologies, Inc., priority 2011, dated 2014).

The target of assay [1] is T1, human recombinant adrenergic α2B receptor (Homo sapiens, UniProt P18089).
T1 construct: expressed in transfected cells; host or cells: CHO-K1
T1 sequence (P18089 1-450): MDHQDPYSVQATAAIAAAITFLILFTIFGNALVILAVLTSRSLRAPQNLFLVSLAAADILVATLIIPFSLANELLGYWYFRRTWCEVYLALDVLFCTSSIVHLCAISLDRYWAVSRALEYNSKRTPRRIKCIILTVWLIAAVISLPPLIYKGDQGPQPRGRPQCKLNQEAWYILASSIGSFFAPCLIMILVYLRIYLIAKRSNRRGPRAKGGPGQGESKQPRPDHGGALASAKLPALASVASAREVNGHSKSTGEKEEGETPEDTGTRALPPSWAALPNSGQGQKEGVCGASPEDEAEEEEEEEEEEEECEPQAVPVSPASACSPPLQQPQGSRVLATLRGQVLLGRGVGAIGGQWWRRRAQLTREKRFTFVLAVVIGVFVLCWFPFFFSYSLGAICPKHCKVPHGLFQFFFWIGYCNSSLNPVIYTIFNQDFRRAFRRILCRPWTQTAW
As to the kind of experiment: Radioligand binding, adrenergic α2B ([3H]Rauwolscine). The settings on record: for Ki: read-out: Ki α2B. Put shortly: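 Assay used CHO-K1-expressed human α2B receptor in Tris-HCl pH 7.4 buffer with MgCl2, EDTA and BSA; 60 min incubation at 25 °C.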

The target in assay [2] is T2, human recombinant adrenergic α2A receptor (Homo sapiens, UniProt P08913).
T2 construct: expressed in transfected cells; host or cells: insect Sf9 cells
T2 sequence (P08913 1-465): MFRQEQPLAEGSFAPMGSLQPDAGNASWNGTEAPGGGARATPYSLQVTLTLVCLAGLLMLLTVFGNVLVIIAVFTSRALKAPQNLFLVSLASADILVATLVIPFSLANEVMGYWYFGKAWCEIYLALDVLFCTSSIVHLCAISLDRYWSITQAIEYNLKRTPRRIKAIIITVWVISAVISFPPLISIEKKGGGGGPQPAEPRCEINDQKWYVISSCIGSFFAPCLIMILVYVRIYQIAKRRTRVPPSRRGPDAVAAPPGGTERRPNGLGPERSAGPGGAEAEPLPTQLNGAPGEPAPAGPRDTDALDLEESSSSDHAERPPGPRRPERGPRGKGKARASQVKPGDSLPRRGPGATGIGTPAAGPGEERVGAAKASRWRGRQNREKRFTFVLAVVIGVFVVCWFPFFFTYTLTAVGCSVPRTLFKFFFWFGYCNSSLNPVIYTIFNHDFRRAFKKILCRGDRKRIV
The assay can be described thus: Radioligand binding, adrenergic α2A ([3H]MK-912). The following applies: for inhibition at 0.03 µM / inhibition at 0.1 µM / Percentage inhibition of ligand binding, Adrenergic α2A / Percentage inhibition of ligand binding, Adrenergic α2A (0.1 μM): [3H]MK-912; for Percentage inhibition of ligand binding, Adrenergic α2A / Percentage inhibition of ligand binding, Adrenergic α2A (0.1 μM): 0.1 µM. Put shortly:
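Receptor expressed in Sf9 cells, in 50 mM Tris-HCl pH 7.4, 12.5 mM MgCl2, 2 mM EDTA; compounds incubated with 1 nM [3H]MK-912 for 60 min at 25 °C.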

For assay [3], the target named is T3, rat adrenergic α1B receptor (Rattus norvegicus, UniProt P15823).
T3 construct: rat adrenergic α1B receptor obtained from Wistar Rat liver; from tissue; host or cells: Wistar rat liver
T3 sequence (P15823 1-515): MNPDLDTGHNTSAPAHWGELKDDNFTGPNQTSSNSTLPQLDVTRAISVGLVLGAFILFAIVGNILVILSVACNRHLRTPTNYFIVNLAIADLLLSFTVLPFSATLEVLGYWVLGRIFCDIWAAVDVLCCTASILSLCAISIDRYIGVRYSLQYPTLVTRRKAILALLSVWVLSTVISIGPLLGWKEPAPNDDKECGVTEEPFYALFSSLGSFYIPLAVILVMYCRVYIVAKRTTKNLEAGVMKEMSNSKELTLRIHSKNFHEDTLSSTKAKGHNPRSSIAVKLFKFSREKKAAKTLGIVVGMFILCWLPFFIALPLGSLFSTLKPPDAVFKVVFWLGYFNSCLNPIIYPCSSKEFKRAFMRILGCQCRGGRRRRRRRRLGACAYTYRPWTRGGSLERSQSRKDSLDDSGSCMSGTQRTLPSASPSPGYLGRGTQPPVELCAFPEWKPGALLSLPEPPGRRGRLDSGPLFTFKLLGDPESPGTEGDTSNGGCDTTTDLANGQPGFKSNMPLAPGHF
As to the kind of experiment: Radioligand binding, adrenergic α1B ([3H]Prazosin). The following applies: for inhibition at 0.03 µM / inhibition at 0.1 µM / Percentage inhibition of ligand binding, Adrenergic α1B / Percentage inhibition of ligand binding, Adrenergic α1B (0.1 μM): [3H]Prazosin. Put shortly: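 Rat α1B receptor from Wistar rat liver was incubated with 0.25 nM [3H]prazosin for 60 min at 25 °C in 50 mM Tris-HCl, pH 7.4, 0.5 mM EDTA. Non-specific binding was defined with 10 μM phentolamine. Bound radioligand was measured by filtration and counting, reported as percent inhibition of specific binding.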

The mark [4] stands for this setting: compound at 0.1 μM, [3H]Rauwolscine, repeat datapoints each shown.
Setting [5] is: read-out: Percentage inhibition of ligand binding, Adrenergic α2B (0.03 μM), compound at 0.03 μM, [3H]Rauwolscine, repeat datapoints each shown.
Where [6] appears, read: read-out: Percentage inhibition of ligand binding, Adrenergic α2B (0.1 μM), compound at 0.1 μM, [3H]Rauwolscine, repeat datapoints each shown.
Where [7] appears, read: read-out: Percentage inhibition of ligand binding, Adrenergic α2A (0.03 μM), compound at 0.03 μM, repeat datapoints each shown.
The mark [8] stands for this setting: read-out: Percentage inhibition of ligand binding, Adrenergic α2A (0.1 μM), compound at 0.1 μM, repeat datapoints each shown.
Where [9] appears, read: read-out: Percentage inhibition of ligand binding, Adrenergic α1B (0.03 μM), compound at 0.03 μM, repeat datapoints each shown.
[10] abbreviates: read-out: Percentage inhibition of ligand binding, Adrenergic α1B (0.1 μM), compound at 0.1 μM, repeat datapoints each shown.
The mark [11] stands for this setting: compound at 0.03 μM, [3H]Rauwolscine, repeat assays, each datapoint shown, 0.03 µM.
The mark [12] stands for this setting: compound at 0.03 μM, repeat assays, each datapoint shown, read-out: Percentage inhibition of ligand binding, Adrenergic α2A.
Where [13] appears, read: compound at 0.1 μM, repeat assays, each datapoint shown.
Where [14] appears, read: compound at 0.03 μM, repeat assays, each datapoint shown, read-out: Percentage inhibition of ligand binding, Adrenergic α1B.
[15] abbreviates: compound at 0.1 μM, repeat assays, each datapoint shown, 0.1 µM.
Setting [16] is: compound at 0.1 μM, repeat datapoints each shown.
Where [17] appears, read: compound at 0.1 μM, repeat datapoints each shown, 0.1 µM.

Several values for one entry are separate records, joined by “and”; a condition that tells them apart may be missing. Equal entries are not always repeated. Where two headings read alike, the source gives them in different places.

For `C/C(=C\n1c2c(c3cc(Cl)ccc31)CN(C)CC2)c1ccncc1` [compound 185, 8-chloro-2,3,4,5-tetrahydro-2-methyl-5-((E)-2-(pyridin-4-yl)prop-1-enyl)-1H-pyrido[4,3-b]indole], in assay [1] (compound at 0.03 μM, [3H]Rauwolscine, repeat datapoints each shown, 0.03 µM), the “Percentage inhibition of ligand binding, Adrenergic α2B (0.03 μM)” value is on record as 77%. In assay [1] (setting [4]), the “Percentage inhibition of ligand binding, Adrenergic α2B (0.1 μM)” value worked out at 97%. Further, the inhibition constant Ki stood at 3.8 nM in assay [1] and 21 nM in assay [2]. In addition, the inhibition at 0.03 µM in assay [1] (setting [5]) was determined as 73%; in assay [2] (setting [7]) it was 37%; in assay [3] (setting [9]) it was 63%. Also, the inhibition at 0.1 µM in assay [1] (setting [6]) is 94%; in assay [2] (setting [8]) it was 62%; in assay [3] (setting [10]) it was 86%.
As for `Cc1cnc2c(c1)c1c(n2CC(C)(O)c2cccnc2)CCN2CCCC12` (single isomer, unassigned) [26a], the “Percentage inhibition of ligand binding, Adrenergic α2B” value in assay [1] (setting [11]) is 101% and 107%. Moreover, the figures for the Ki in assay [1] and in assay [2] were 0.56 nM and 113 nM, respectively. Besides, the inhibition at 0.03 µM in assay [2] (setting [12]) stood at 14%; in assay [3] (setting [14]) it was 32%. Moreover, the “Percentage inhibition of ligand binding, Adrenergic α2A” value in assay [2] (setting [13]) is 23% and 33%. Moreover, the “Percentage inhibition of ligand binding, Adrenergic α1B” value in assay [3] (setting [15]) was 52% and 61%.
Take `Cc1ccc2c(c1)c1c(n2CC(O)c2ccncc2)CCNC1` (single isomer, unassigned) [39a, 2-(8-methyl-1,2,3,4-tetrahydro-pyrido[4,3-b]indol-5-yl)-1-pyridin-4-yl-ethanol]: the inhibition at 0.03 µM was found to be 86% in assay [1] (compound at 0.03 μM, [3H]Rauwolscine, repeat assays, each datapoint shown, read-out: Percentage inhibition of ligand binding, Adrenergic α2B); 5% in assay [2] (setting [12]); 9% in assay [3] (setting [14]). The inhibition at 0.1 µM in assay [1] (compound at 0.1 μM, [3H]Rauwolscine, repeat assays, each datapoint shown, read-out: Percentage inhibition of ligand binding, Adrenergic α2B) was 92%; in assay [2] (compound at 0.1 μM, repeat assays, each datapoint shown, read-out: Percentage inhibition of ligand binding, Adrenergic α2A), 13%; in assay [3] (compound at 0.1 μM, repeat assays, each datapoint shown, read-out: Percentage inhibition of ligand binding, Adrenergic α1B), 38%. Moreover, the inhibition constant (Ki) came out at 2.5 nM in assay [1] and 1660 nM in assay [2]. For the same compound, the “Percentage inhibition of ligand binding, Adrenergic α2A” value in assay [2] (setting [13]) is 15%. The “Percentage inhibition of ligand binding, Adrenergic α1B” value in assay [3] (setting [15]) is given as 33%.
As for `Cc1ccc2c(c1)c1c(n2C2=C(c3ccncc3)CCC2)CCN(C)C1` [compound 114], the “Percentage inhibition of ligand binding, Adrenergic α2B (0.1 μM)” value in assay [1] (setting [4]) is reported as 71%. In addition, in assay [1], the Ki turned out to be 17.4 nM. Also, the inhibition at 0.03 µM in assay [1] (setting [5]) was 42%. Moreover, the inhibition at 0.1 µM amounted to 58% in assay [1] (setting [6]), 21% in assay [2] (setting [8]) and 15% in assay [3] (setting [10]).
As to `Cc1ccc(CCn2c3c(c4cc(C)ccc42)CN(C)CC3)cc1` [compound 180, 2,3,4,5-tetrahydro-2,8-dimethyl-5-(4-methylphenethyl)-1H-pyrido[4,3-b]indole], the inhibition at 0.03 µM in assay [1] (setting [5]) was 91%; in assay [3] (setting [9]), 70%. The inhibition at 0.1 µM in assay [1] (setting [6]) amounted to 99%; in assay [2] (setting [8]) it was 95%; in assay [3] (setting [10]) it was 87%.
Take `CCN1CCc2c(c3cc(C)ccc3n2CC(O)c2ccc(C)cc2)C1` (stereo not shown) [compound 203]: the inhibition at 0.03 µM in assay [1] (setting [5]) stood at 23%; in assay [3] (setting [9]), 37%. Besides, in assay [1] (setting [6]), the inhibition at 0.1 µM was 41%. Besides, the “Percentage inhibition of ligand binding, Adrenergic α2A (0.1 μM)” value in assay [2] (setting [16]) worked out at 88%. The “Percentage inhibition of ligand binding, Adrenergic α1B (0.1 μM)” value in assay [3] (setting [17]) is 71%.
As to `Cc1ccc2c(c1)c1c(n2C2=C(c3ccc(C)s3)CCC2)CCN(C)C1` [compound 190, 2,8-dimethyl-5-(2-(5-methylthiophen-2-yl)cyclopent-1-enyl)-2,3,4,5-tetrahydro-1H-pyrido[4,3-b]indole], the “Percentage inhibition of ligand binding, Adrenergic α2B (0.1 μM)” value in assay [1] (setting [4]) stood at 99%. Moreover, the figures for the Ki in assay [1] and in assay [2] were 2.26 nM and 12.8 nM, respectively. The inhibition at 0.03 µM came to 88% in assay [1] (setting [5]), 49% in assay [2] (setting [7]) and 9% in assay [3] (setting [9]). Moreover, the inhibition at 0.1 µM in assay [1] (setting [6]) turned out to be 84%; in assay [2] (setting [8]), 70%; in assay [3] (setting [10]), 14%. In addition, the “Percentage inhibition of ligand binding, Adrenergic α2A (0.1 μM)” value in assay [2] (setting [16]) is 89%. In addition, the “Percentage inhibition of ligand binding, Adrenergic α1B (0.1 μM)” value in assay [3] (setting [17]) was found to be 15%.
On to `CN1CCc2c(c3ccccc3n2CCc2ccccc2)C1` [compound 182, 2,3,4,5-Tetrahydro-2-methyl-5-phenethyl-1H-pyrido[4,3-b]indole], for which the inhibition at 0.03 µM stood at 83% in assay [1] (setting [5]) and 13% in assay [3] (setting [9]). The inhibition at 0.1 µM is 91% in assay [1] (setting [6]), 69% in assay [2] (setting [8]) and 29% in assay [3] (setting [10]).
Turning to `Cc1ccc2c(c1)c1c(n2CC(O)c2ccncc2)CCN(C)C1` (single isomer, unassigned) [3b], the “Percentage inhibition of ligand binding, Adrenergic α2B” value in assay [1] (setting [11]) was 100% and 101% and 102% and 112%. The Ki is 0.26 nM and 0.28 nM and 0.46 nM in assay [1]; 139 nM and 166 nM and 222 nM in assay [2]; 51 nM in assay [3]. In addition, in assay [2] (setting [12]), the inhibition at 0.03 µM stood at 1%. The “Percentage inhibition of ligand binding, Adrenergic α2A” value in assay [2] (setting [13]) was 21% and 22% and 23% and 25%. In addition, the “Percentage inhibition of ligand binding, Adrenergic α1B” value in assay [3] (compound at 0.03 μM, repeat assays, each datapoint shown, 0.03 µM) was 27% and 32% and 34%; in assay [3] (setting [15]), 50% and 55% and 57% and 61%.
